Results published in paper PMC6589914 (Chembiochem, 2019).

Key:
bFUCA1 = target: T1, bFUCA1 (Bos taurus, UniProt Q2KIM0); experiment: enzyme inhibition assay with 4-nitrophenyl α-L-fucopyranoside; assay type: biochemical
T1 sequence (Q2KIM0 23-468): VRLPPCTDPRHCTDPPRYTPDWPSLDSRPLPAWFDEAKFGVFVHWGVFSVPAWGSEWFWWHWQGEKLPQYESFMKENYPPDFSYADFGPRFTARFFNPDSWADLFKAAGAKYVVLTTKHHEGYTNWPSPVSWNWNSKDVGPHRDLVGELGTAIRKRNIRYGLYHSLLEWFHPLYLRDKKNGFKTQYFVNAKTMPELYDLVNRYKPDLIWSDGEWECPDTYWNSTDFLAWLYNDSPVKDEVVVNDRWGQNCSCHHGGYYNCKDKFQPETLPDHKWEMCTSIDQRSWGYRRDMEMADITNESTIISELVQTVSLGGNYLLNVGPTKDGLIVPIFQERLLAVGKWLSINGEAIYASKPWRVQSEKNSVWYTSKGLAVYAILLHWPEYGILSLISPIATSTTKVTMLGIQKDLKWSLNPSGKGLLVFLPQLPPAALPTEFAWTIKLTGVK

BT2970 = target: T2, BT2970 (Bacteroides thetaiotaomicron, UniProt Q8A3I4); experiment: enzyme inhibition; assay type: biochemical
T2 sequence (Q8A3I4 30-484): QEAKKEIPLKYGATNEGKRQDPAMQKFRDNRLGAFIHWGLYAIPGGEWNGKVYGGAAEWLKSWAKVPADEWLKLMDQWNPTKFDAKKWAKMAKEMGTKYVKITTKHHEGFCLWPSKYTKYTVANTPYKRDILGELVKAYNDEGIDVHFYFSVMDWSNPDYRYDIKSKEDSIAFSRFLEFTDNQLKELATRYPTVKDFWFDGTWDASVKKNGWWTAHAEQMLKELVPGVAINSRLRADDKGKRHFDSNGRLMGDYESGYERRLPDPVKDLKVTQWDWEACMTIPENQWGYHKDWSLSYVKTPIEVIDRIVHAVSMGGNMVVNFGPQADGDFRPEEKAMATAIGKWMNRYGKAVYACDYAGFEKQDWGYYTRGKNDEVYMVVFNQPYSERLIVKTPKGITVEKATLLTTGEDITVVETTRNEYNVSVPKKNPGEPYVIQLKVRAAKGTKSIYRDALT

SMILES	Ki (bFUCA1)	Ki (BT2970)
COc1ccc(NC(=O)ON=C2O[C@@H](C)[C@@H](O)[C@@H](O)[C@@H]2O)cc1 [compound 41, 41]	9.5 ± 0.9 µM	–
C=CCNC(=O)ON=C1O[C@@H](C)[C@@H](O)[C@@H](O)[C@@H]1O [compound 30, 30]	175 ± 6 µM	–
CCCCCCNC(=O)ON=C1O[C@@H](C)[C@@H](O)[C@@H](O)[C@@H]1O [compound 32, 32]	143 ± 8 µM	–
C[C@@H]1OC(=NOC(=O)Nc2ccc(Br)cc2)[C@@H](O)[C@H](O)[C@@H]1O [compound 40, 40]	85 ± 4 µM	–
CCCCNC(=O)ON=C1O[C@@H](C)[C@@H](O)[C@@H](O)[C@@H]1O [compound 31, 31]	172 ± 7 µM	–
CCCCCCCCCCc1ccc(NC(=O)ON=C2O[C@@H](C)[C@@H](O)[C@@H](O)[C@@H]2O)cc1 [compound 43, 43]	4.8 ± 0.5 µM	–
C[C@@H]1OC(=NO)[C@@H](O)[C@H](O)[C@@H]1O [compound 12, 1,5-hydroximolactone 12]	323 ± 12 µM	–
C[C@@H]1O/C(=N\OC(=O)Nc2ccccc2)[C@@H](O)[C@H](O)[C@@H]1O [compound 39, 39]	11 ± 1 µM	121 ± 24 µM
CCCNC(=O)ON=C1O[C@@H](C)[C@@H](O)[C@@H](O)[C@@H]1O [compound 29, 29]	190 ± 11 µM	–
C[C@@H]1OC(=NOC(=O)NC(C)(C)C)[C@@H](O)[C@H](O)[C@@H]1O [compound 34, 34]	440 ± 9 µM	–

More lines, in order of falling Ki (bFUCA1), values ahead:

Ki (bFUCA1)	Ki (BT2970)	SMILES
325 ± 8 µM	–	C[C@@H]1OC(=NOC(=O)NC2CCCC2)[C@@H](O)[C@H](O)[C@@H]1O [compound 37, 37]
320 ± 12 µM	–	CC(C)NC(=O)ON=C1O[C@@H](C)[C@@H](O)[C@@H](O)[C@@H]1O [compound 33, 33]
220 ± 12 µM	–	C[C@@H]1OC(=NOC(=O)NC2CCC2)[C@@H](O)[C@H](O)[C@@H]1O [compound 36, 36]
184 ± 6 µM	–	C[C@@H]1OC(=NOC(=O)NC2CC2)[C@@H](O)[C@H](O)[C@@H]1O [compound 35, 35]
7.5 ± 0.4 µM	–	CCCCc1ccc(NC(=O)ON=C2O[C@@H](C)[C@@H](O)[C@@H](O)[C@@H]2O)cc1 [compound 42, 42]
